Reference: article PMC6318274, “Lattice engineering enables definition of molecular features allowing for potent small-molecule inhibition of HIV-1 entry” (Nature Communications, 2019)
pIC50: −log10 of the molar value. Like-named read-outs stand apart in the source and are kept apart here.

System: HIV-1 Env-pseudoviruses (208-strain panel)
Assay: microbe, parasite or virus in culture
Format: cell-based
Conditions: Human immunodeficiency virus 1, TZM-bl, read-out: IC50
Experimental: Neutralization was measured using single-round-of-infection HIV-1 Env-pseudoviruses and TZM-bl target cells (ARP Cat No. #8129)[44],[45]. Compounds were prepared at 400 μM with 4% DMSO (dimethyl sulfoxide) in PBS (phosphate-buffered saline) and diluted 20 times as the starting concentration for serial dilution in the neutralization assays. […] After incubation at 37 °C for 2 days, infection of target cells was measured by luciferase activity. Neutralization curves were fit by nonlinear regression using a five-parameter hill slope equation[45].

With `COc1cnc(-c2csc(C(=O)NCCO)n2)c2[nH]cc(C(=O)C(=O)N3CCC(=C(C#N)c4ccccc4)CC3)c12` [BMS-818251] the pIC50 (CNE5, clade AE) was 6.33, the pIC50 (CNE7, clade BC) was 9.40 and the pIC50 (CNE8, clade AE) was 5.57. The pIC50 (CNE10 (Clade B)) was 10.00, the pIC50 (CNE12, clade B) was 8.70 and the pIC50 (CNE14, clade B) was 5.95. It also gave a pIC50 (CNE15, clade BC) of 10.00, a pIC50 (CNE19, clade BC) of 10.00 and a pIC50 (CNE20 (Clade BC)) of 8.22. For the same molecule, the pIC50 (CNE21, clade BC) was 9.52, the pIC50 (CNE30, clade C) was 9.70 and the pIC50 (CNE31, clade C) was 9.00. For the same molecule, the pIC50 (CNE40, clade BC) was 9.00, the pIC50 (CNE55, clade AE) was 6.55 and the pIC50 (CNE56 (Clade AE)) was 6.10. The pIC50 (CNE57, clade B) was 9.52, the pIC50 (CNE58, clade C) was 9.70 and the pIC50 (CNE59, clade AE) was 6.30. For the same molecule, the pIC50 (Ce1176.A3, clade C) was 9.05, the pIC50 (DJ263.8 (Clade AG)) was 9.70 and the pIC50 (DU123.06, clade C) was 9.52. For the same molecule, the pIC50 (DU151.02, clade C) was 9.70, the pIC50 (DU156.12 (Clade C)) was 9.70 and the pIC50 (DU172.17, clade C) was 10.00. It also gave a pIC50 (DU422.01, clade C) of 9.15, a pIC50 (HO86.8, clade B) of 8.40 and a pIC50 (HT593.1, clade B) of 10.00. For the same molecule, the pIC50 (JRFL.JB, clade B) was 10.00, the pIC50 (KER2008.12 (Clade A)) was 7.82 and the pIC50 (KER2018.11, clade A) was 9.52. For the same molecule, the pIC50 (KNH1209.18, clade A) was 9.40, the pIC50 (M02138, clade AE) was 7.55 and the pIC50 (MB201.A1 (Clade A)) was 8.05. For the same molecule, the pIC50 (MB539.2B7, clade A) was 8.70, the pIC50 (MI369.A5, clade A) was 9.52 and the pIC50 (MN.3, clade B) was 9.22. For the same molecule, the pIC50 (MS208.A1, clade A) was 9.52, the pIC50 (MW965.26, clade C) was 8.22 and the pIC50 (NKU3006.ec1 (Clade D)) was 9.70. For the same molecule, the pIC50 (P0402.c2.11 (Clade G)) was 9.70, the pIC50 (P1981.C5.3, clade G) was 9.30 and the pIC50 (PVO.04 (Clade B)) was 9.40. The pIC50 (Q23.17, clade A) was 9.30, the pIC50 (Q168.a2, clade AD) was 8.52 and the pIC50 (Q259.17, clade A) was 8.15. It also gave a pIC50 (Q461.e2, clade AD) of 9.52, a pIC50 (Q769.d22, clade A) of 9.00 and a pIC50 (Q769.h5, clade A) of 8.70. The pIC50 (Q842.d12, clade A) was 9.40, the pIC50 (QH209.14M.A2, clade A) was 7.22 and the pIC50 (QH0515.01, clade B) was 7.51. For the same molecule, the pIC50 (QH0692.42, clade B) was 9.15, the pIC50 (R1166.c1, clade AE) was under 4.70 and the pIC50 (R2184.c4, clade AE) was 5.69. The pIC50 (R3265.c6 (Clade AE)) was 6.91, the pIC50 (REJO.67 (Clade B)) was 6.23 and the pIC50 (RHPA.7, clade B) was 9.30. For the same molecule, the pIC50 (RW020.2, clade A) was 9.15, the pIC50 (SF162.LS, clade B) was 10.00 and the pIC50 (SO18.18, clade C) was 9.70. For the same molecule, the pIC50 (SS1196.01, clade B) was 6.24, the pIC50 (T33-7, clade AG) was 6.60 and the pIC50 (T250-4, clade AG) was 9.40. It also gave a pIC50 (T251-18, clade AG) of 9.22, a pIC50 (T253-11 (Clade AG)) of 10.00 and a pIC50 (T255-34, clade AG) of 8.70. The pIC50 (T257-31, clade AG) was 9.00, the pIC50 (T266-60, clade AG) was 7.38 and the pIC50 (T278-50, clade AG) was 10.00. The pIC50 (T280-5 (Clade AG)) was 9.40, the pIC50 (TH023.6, clade AE) was under 4.70 and the pIC50 (TH966.8, clade AE) was 6.03. For the same molecule, the pIC50 (TH976.17, clade AE) was 5.89, the pIC50 (THRO.18, clade B) was 9.70 and the pIC50 (TRJO.58, clade B) was 10.00. For the same molecule, the pIC50 (TRO.11, clade B) was 6.90, the pIC50 (TV1.29, clade C) was 9.00 and the pIC50 (TZA125.17, clade C) was 9.00. It also gave a pIC50 (TZBD.02, clade C) of 9.52, a pIC50 (UG021.16, clade D) of 9.70 and a pIC50 (UG024.2, clade D) of under 4.70. For the same molecule, the pIC50 (UG037.8, clade A) was 8.00, the pIC50 (WITO.33, clade B) was 9.10 and the pIC50 (X1254.c3, clade G) was 9.70. For the same molecule, the pIC50 (X1632.S2.B10, clade G) was 9.52, the pIC50 (X2088.c9, clade G) was 9.52 and the pIC50 (X2131.C1.B5, clade G) was 9.00. It also gave a pIC50 (X2278.C2.B6, clade B) of 6.36, a pIC50 (YU2.DG, clade B) of 9.30 and a pIC50 (ZA012.29, clade C) of 9.30. The pIC50 (ZM53.12, clade C) was 9.40, the pIC50 (ZM55.28a, clade C) was 9.52 and the pIC50 (ZM106.9 (Clade C)) was 8.70. For the same molecule, the pIC50 (ZM109.4, clade C) was 10.00, the pIC50 (ZM135.10a, clade C) was 6.82 and the pIC50 (ZM176.66, clade C) was 9.00. It also gave a pIC50 (ZM197.7, clade C) of 9.70, a pIC50 (ZM214.15, clade C) of 9.70 and a pIC50 (ZM215.8, clade C) of 10.00. The pIC50 (ZM233.6, clade C) was 10.00, the pIC50 (ZM249.1, clade C) was 9.40 and the pIC50 ([…], clade C) was 10.00. It also gave a pIC50 ([…], clade G) of 9.22.
